Structures are written as SMILES. Values after ≈ are worked out from the molar mass of the structure shown.

In general, solubility refers to the concentration that dissolves in the medium under given conditions. The low end stands for little dissolved substance, the high end for much dissolved substance. Usually inhibition stands for how much of the control response was suppressed.

The nature of data set [1]: Solubility of the compound. In kind it is physicochemical.
Data set [2] addresses Serine/threonine-protein kinase PLK1 (Homo sapiens) (UniProt P53350). The experiment in a line: Inhibition of human recombinant N-terminal GST-tagged Plk1 at 250 uM.

Chain of Serine/threonine-protein kinase PLK1 (Homo sapiens) (P53350 whole entry): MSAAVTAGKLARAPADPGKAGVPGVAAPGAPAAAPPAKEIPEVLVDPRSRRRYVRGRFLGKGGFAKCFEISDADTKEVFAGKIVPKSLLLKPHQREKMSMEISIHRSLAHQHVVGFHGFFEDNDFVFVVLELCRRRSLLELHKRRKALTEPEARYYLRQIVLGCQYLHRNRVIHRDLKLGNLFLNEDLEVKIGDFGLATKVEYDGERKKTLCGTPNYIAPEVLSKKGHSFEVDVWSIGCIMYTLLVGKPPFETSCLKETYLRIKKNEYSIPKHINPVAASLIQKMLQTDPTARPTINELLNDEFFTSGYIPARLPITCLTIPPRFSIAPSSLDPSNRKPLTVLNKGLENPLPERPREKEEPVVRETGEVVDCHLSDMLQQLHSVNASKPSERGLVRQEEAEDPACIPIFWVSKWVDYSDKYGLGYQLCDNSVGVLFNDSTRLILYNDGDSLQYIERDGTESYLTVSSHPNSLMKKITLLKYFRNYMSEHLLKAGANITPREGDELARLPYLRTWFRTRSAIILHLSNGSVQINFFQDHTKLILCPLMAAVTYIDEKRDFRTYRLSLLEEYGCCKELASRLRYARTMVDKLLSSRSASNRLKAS

`Cc1cc(-c2ccc(C#N)cc2)c(OCCO)c(-c2ccc(C#N)cc2)c1` gave a solubility in data set [1] of 100 µM (≈ 35.4 µg/mL).
In the case of `CNC(=O)Cc1ccc(-c2cc(C)cc(-c3ccc(CC(=O)NC)cc3)c2OCCO)cc1`, the inhibition in data set [2] came out at 0%.

Values taken from ChEMBL document CHEMBL2321874, “Small-molecular, non-peptide, non-ATP-competitive polo-like kinase 1 (Plk1) inhibitors with a terphenyl skeleton” (Bioorg Med Chem, 2013).
